# Where two headings read alike, the source gives them in different places.
# Legend:
# HuTu-80 cells [1] = assay: cells; assay type: cell-based; conditions: ratio IC50 hFF3 / IC50 HuTu-80
# Description: (§1) According to our previous data and data published by other research groups, chemical transformations of bile acids can greatly improve their antitumor potential. Thus, as the first step of evaluation of the biological activities of our novel DCA derivatives we assessed their effects on tumor cell viability. The cytotoxicity of the compounds was investigated with respect to a panel of cultured cell lines, including human duodenal HuTu-80, hepatocellular HepG2, cervical KB-3-1 and lung A549 carcinomas as well as murine macrophage RAW264.7 and non-transformed human fibroblasts hFF3 by MTT assay.
# (§2) Human duodenal carcinoma HuTu-80 cells, human hepatocellular carcinoma HepG2 cells, human cervical carcinoma KB-3-1 cells, human lung carcinoma A549 cells were obtained from the Russian Cell Culture Collection (Institute of Cytology, RAS, St. Petersburg, Russia). Non-transformed human fibroblasts hFF3 were kindly provided by Dr. Olga Koval (Institute of Chemical Biology and Fundamental Medicine, SB RAS, Novosibirsk, Russia). RAW264.7 macrophages were kindly provided by Prof. Dr. Dmitry Kuprash (Engelhardt Institute of Molecular Biology, RAS, Moscow, Russia). The cells were cultured in DMEM (Sigma-Aldrich Inc., St. Louis, MO, USA) supplemented with 10% (v/v) heat-inactivated fetal bovine serum (FBS) (BioloT, St. Petersburg, Russia), 100 U/mL penicillin (ICN Biomedicals Inc., Costa Mesa, CA, USA), 100 µg/mL streptomycin and 0.25 µg/mL amphotericin; additionally, in the case of RAW264.7 cells, concentration of glucose in the medium was increased up to 4.5 mg/mL. The cells were incubated at 37 °C in 5% CO2 and 95% air (hereafter referred to as standard conditions). DCA derivatives were dissolved in DMSO to yield stock solutions of 10 mmol/L and stored at −20 °C prior to use.
# (§3) Cells were seeded in triplicate in 96-well plates at a density of 5 × 10^3 (HuTu-80, HepG2, KB-3-1, hFF3), 10^4 (A549) or 5 × 10^4 (RAW264.7) cells per well. Cells were incubated under standard conditions for 24 h and then they were treated with varying doses of investigated derivatives for subsequent 24 h. Then 10 µL of MTT solution (5 mg/mL) were added to each wells and cells were incubated for an additional 2 h under standard conditions. The crystals of formazan forming within live cells were solubilized with DMSO and the absorbance was measured in a Multiscan RC plate reader (Thermo LabSystems, Helsinki, Finland) at a test and reference wavelengths of 570 nm and 620 nm, respectively. […] To perform SAR analysis, hierarchical clustering of compounds based on their IC50 values was fulfilled with Euclidean distance by using the Morpheus tool (https://software.broadinstitute.org/morpheus/), a platform designed for visualization and analysis of data in a matrix format. Heatmap, containing compounds’ SI values, were constructed by using the Excel 2010 software (Microsoft, Redmond, WA, USA). In order to reveal whether ROS participate in the induction of cell death by compound 9, HuTu-80 cells cultured in 96-well plate were pretreated by NAC at 2 mM for 1 h. Thereafter, the medium was replaced by fresh medium with compound 9 at 8 µM and the cells were incubated with subsequent 24 h under standard conditions. After this time period, the curves of cytotoxicity of compound 9 in the presence or absence of NAC were compared.
# RAW264.7 macrophages = assay: MTT cytotoxicity assay, RAW264.7; assay type: cell-based, murine; conditions: for IC50: Mus musculus, RAW264.7, MTT, 24 h, read-out: IC50 RAW264.7 (macrophage); for Selectivity index RAW264: ratio IC50 hFF3 / IC50 RAW264.7
# Description: as §1, §2, §3
# [2] = system: NO synthesis by IFNγ-activated RAW264.7 cells; assay: Inhibition of NO production by stimulated macrophages (Griess); assay type: cell-based, murine; conditions: Mus musculus, read-out: IC50NO
# Procedure: RAW264.7 cells were seeded in triplicate in 96-well plates at a density of 5 × 10^4 cells/well and incubated under standard conditions for 24 h. The cells were treated with 20 ng/mL of murine recombinant IFNγ (GIBCO, Gaithersburg, MD, USA), with or without (control) compounds at various concentrations for 24 h. The level of NO production was evaluated by determining the nitrite concentration in culture medium with a Griess Reagent System (Promega, Madison, WI, USA). The IC50^NO value was calculated as the derivative concentration required to decrease NO production to 50% of the non-treated control.
# HuTu-80 cells [3] = system: HuTu-80 cells; set-up: method as in PMID 28688958, PMID 26037611, PMID 28887170; conditions: MTT, 24 h; values marked by asterisk; ref [21],[22],[23]; read-out: IC50 HuTu-80 (duodenum); cited from earlier work
# HepG2 cells [4] = system: HepG2 cells; set-up: method as in PMID 28688958, PMID 26037611, PMID 28887170; conditions: MTT, 24 h; values marked by asterisk; ref [21],[22],[23]; read-out: IC50 HepG2 (liver); cited from earlier work
# KB-3-1 cells [5] = system: KB-3-1 cells; set-up: method as in PMID 28688958, PMID 26037611, PMID 28887170; conditions: MTT, 24 h; values marked by asterisk; ref [21],[22],[23]; read-out: IC50 KB3-1 (cervix); cited from earlier work
# [6] = system: non-transformed human fibroblasts hFF3; set-up: method as in PMID 28688958, PMID 26037611, PMID 28887170; conditions: MTT, 24 h; values marked by asterisk; ref [21],[22],[23]; read-out: IC50 hFF3 (fibroblast); cited from earlier work
# [7] = system: panel of cultured cell lines (HuTu-80, HepG2, KB-3-1, A549, RAW264.7, hFF3); set-up: method as in PMID 28688958, PMID 26037611, PMID 28887170; conditions: MTT, 24 h; summary of Table 1 values marked by asterisk; ref [21],[22],[23]; read-out: IC50, range or lowest value over tested cell lines; cited from earlier work
# HepG2 cells [8] = assay: MTT cytotoxicity assay, HepG2; assay type: cell-based, human; conditions: ratio IC50 hFF3 / IC50 HepG2
# Description: as §1, §2, §3
# KB-3-1 cells [9] = assay: MTT cytotoxicity assay, KB-3-1; assay type: cell-based, human; conditions: ratio IC50 hFF3 / IC50 KB-3-1
# Description: as §1, §2, §3
# A549 cells [10] = assay: MTT cytotoxicity assay, A549; assay type: cell-based, human; conditions: ratio IC50 hFF3 / IC50 A549
# Description: as §1, §2, §3
# A549 cells [11] = system: A549 cells; set-up: method as in PMID 28688958, PMID 26037611, PMID 28887170; conditions: MTT, 24 h; values marked by asterisk; ref [21],[22],[23]; read-out: IC50 A549 (lung); cited from earlier work
Compound,Selectivity index HuTu-80 (HuTu-80 cells [1]),IC50 (RAW264.7 macrophages) [µM],Selectivity index RAW264 (RAW264.7 macrophages),"IC50 ([2]; RAW264.7, 24 h) [µM]",IC50 (HuTu-80 cells [3]) [µM],IC50 (HepG2 cells [4]) [µM],IC50 (KB-3-1 cells [5]) [µM],IC50 [6] [µM],IC50 [7] [µM],Selectivity index HepG-2 (HepG2 cells [8]),Selectivity index KB-3-1 (KB-3-1 cells [9]),Selectivity index A549 (A549 cells [10]),IC50 (A549 cells [11]) [µM],"IC50 ([2]; 50% reduction in NO synthesis by IFNγ-activated RAW264.7 cells, 24 h) [µM]"
"COC(=O)CC[C@@H](C)[C@H]1CCC2[C@@H]3CC[C@@H]4C[C@@]5(CC[C@]4(C)C3CC(=O)[C@@]21C)CO5 (stereo partly drawn) [Compound 1, methyl 3β-oxirane-12-oxo-5β-cholan-24-oate]",1.6,> 100,<0.5,16.4 ± 0.9,17 ± 1.6,43.5 ± 1.9,27.9 ± 2.5,53.9 ± 3.3,≥ 17,,,,,
COC(=O)CC[C@@H](C)[C@H]1CCC2[C@@H]3CC[C@@H]4C[C@](O)(CNCCN(C)C)CC[C@]4(C)C3CC(=O)[C@@]21C (some centres unmarked) [Compound 2],3.6,21.7 ± 0.87,1.2,> 10,7.1 ± 0.6,8 ± 0.9,26.2 ± 0.8,25.4 ± 2.2,7.1 to 36,3.2,1,0.7,36 ± 0.7,
COC(=O)CC[C@@H](C)[C@H]1CCC2[C@@H]3CC[C@@H]4C[C@](O)(CNCCCN(C)C)CC[C@]4(C)C3CC(=O)[C@@]21C (some centres unmarked) [Compound 3],2.2,6.7 ± 0.4,1,> 10,3 ± 0.4,4 ± 0.2,5.9 ± 0.5,6.5 ± 0.5,3 to 6.8,1.6,1.1,1,6.8 ± 0.1,
COC(=O)CC[C@@H](C)[C@H]1CCC2[C@@H]3CC[C@@H]4C[C@](O)(CN5CCN(C)CC5)CC[C@]4(C)C3CC(=O)[C@@]21C (some centres unmarked) [Compound 4],6.9,20.4 ± 0.4,1.6,> 10,4.7 ± 0.2,3.6 ± 0.7,23.5 ± 1.7,32.5 ± 1.4,,9,1.4,1.5,21.6 ± 2.5,
CCN(CC)CCNC[C@]1(O)CC[C@]2(C)C3CC(=O)[C@@]4(C)C(CC[C@@H]4[C@H](C)CCC(=O)OC)[C@@H]3CC[C@@H]2C1 (some centres unmarked) [Compound 5],2.2,20.9 ± 2.1,0.4,> 10,3.3 ± 0.1,4.3 ± 0.3,21.6 ± 3.4,7.4 ± 1,3.3 to 25.5,1.7,0.3,0.3,25.5 ± 0.8,
CCN1CCN(C[C@]2(O)CC[C@]3(C)C4CC(=O)[C@@]5(C)C(CC[C@@H]5[C@H](C)CCC(=O)OC)[C@@H]4CC[C@@H]3C2)CC1 (some centres unmarked) [Compound 7],2,37.8 ± 1.7,0.5,> 10,8.3 ± 1.2,3.8 ± 0.3,28.6 ± 0.5,17.4 ± 1.6,,4.6,0.6,0.7,23.5 ± 3,
"COC(=O)CC[C@@H](C)[C@H]1CC[C@H]2[C@@H]3CC[C@@H]4C[C@H](O)CC[C@]4(C)[C@H]3CC(=O)[C@]12C [Compound 11, methyl 3α-hydroxy-12-oxo-5β-cholan-24-oate]",,> 100,,50.9 ± 5.9,> 100,25.7 ± 3.6,> 100,> 100,≥ 25.7,>3.9,,1,,
"C[C@H](CCC(=O)O)[C@H]1CC[C@H]2[C@@H]3CC[C@@H]4C[C@H](O)CC[C@]4(C)[C@H]3C[C@H](O)[C@]12C [DCA, deoxycholic acid]",,> 100,,,82.9 ± 1.9,> 100,> 100,> 100,≥ 82.9,,,1,,83.6 ± 1.6

# From PMC6681416, “Novel Derivatives of Deoxycholic Acid Bearing Linear Aliphatic Diamine and Aminoalcohol Moieties and their Cyclic Analogs at the C3 Position: Synthesis and Evaluation of Their In Vitro Antitumor Potential” (Molecules, 2019)
